Consider one molecule from doi:10.1101/2024.01.14.575554v1 (biorxiv, 2024).

The target in this assay is T1, Hsp60β (Sulfolobus acidocaldarius, UniProt Q9V2T4).
T1 sequence (Q9V2T4 1-553): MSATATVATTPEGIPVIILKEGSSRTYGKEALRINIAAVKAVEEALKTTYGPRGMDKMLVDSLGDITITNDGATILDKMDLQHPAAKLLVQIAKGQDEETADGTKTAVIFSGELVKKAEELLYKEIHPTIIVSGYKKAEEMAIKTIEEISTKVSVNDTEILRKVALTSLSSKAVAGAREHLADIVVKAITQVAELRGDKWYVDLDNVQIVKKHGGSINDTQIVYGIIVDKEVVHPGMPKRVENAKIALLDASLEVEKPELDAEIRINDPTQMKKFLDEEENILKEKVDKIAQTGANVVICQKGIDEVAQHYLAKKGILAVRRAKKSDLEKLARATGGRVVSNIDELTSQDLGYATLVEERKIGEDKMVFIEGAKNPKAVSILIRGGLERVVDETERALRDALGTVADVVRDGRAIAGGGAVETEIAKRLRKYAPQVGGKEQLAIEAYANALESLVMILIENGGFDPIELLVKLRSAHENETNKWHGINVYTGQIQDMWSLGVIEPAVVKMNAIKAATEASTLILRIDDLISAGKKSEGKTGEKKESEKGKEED
Kind of assay: FRET titration, tryptophan donor to MANT acceptor. The assay is classed as binding.

Regarding `CNc1ccccc1C(=O)O[C@H]1[C@@H](O)[C@H](n2cnc3c(N)ncnc32)O[C@@H]1CO[P@@](=O)(O)O[P@](=O)(O)OP(=O)(O)O` [MANT-ATP, 2’/3’-(N-methyl-anthraniloyl)-adenosine-5’-triphosphate], the affinity, expressed as Kd, was 77.2 ± 3.8 µM.

By Kd is commonly meant a measure of binding affinity in units of concentration.
